Test results from PubChem BioAssay AID1195 (EPA DSSTox, 2008).

Tested on: human maximum recommended daily dose, FDA database
Experiment: DSSTox (FDAMDD) FDA Maximum (Recommended) Daily Dose Database
Conditions: active compounds read low
Summary of the method: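 MRDD values come from clinical trials with daily oral dosing, usually for 3–12 months, for the average adult, in mg/day converted to mg/kg-bw/day assuming 60 kg. Antineoplastic mg/m2 doses are divided by 37. Activity score maps log10(1/MRDD mmol) onto 1–100.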

[1] = TherapeuticCategory: antineoplastic
[2] = TherapeuticCategory: antibacterial
[3] = TherapeuticCategory: anxiolytic
[4] = TherapeuticCategory: analgesic, anti inflammatory
[5] = TherapeuticCategory: antidepressant
[6] = TherapeuticCategory: anti inflammatory
[7] = TherapeuticCategory: antihyperlipoproteinemic
[8] = TherapeuticCategory: bronchodilator
[9] = TherapeuticCategory: anthelmintic
[10] = TherapeuticCategory: antiulcerative

`O=C1NC(=O)C(c2ccccc2)(c2ccccc2)N1` showed a maximum recommended daily dose (mmol/kg-bw/day) (TherapeuticCategory: anticonvulsant, antiepileptic) of 0.0198.

For `COCCOC(=O)C1=C(C)NC(C)=C(C(=O)OC(C)C)C1c1cccc([N+](=O)[O-])c1` (stereo not drawn), the maximum recommended daily dose (mmol/kg-bw/day) (TherapeuticCategory: cerebral vasodilator) was 0.0143.

In the case of `BrC(Br)Br`, the maximum recommended daily dose (mmol/kg-bw/day) (TherapeuticCategory: sedative, hypnotic, antitussive) is reported as 0.0989.

With `COc1cccc2c1C(=O)c1c(O)c3c(c(O)c1C2=O)C[C@@](O)(C(C)=O)C[C@@H]3O[C@H]1C[C@H](N)[C@H](O)[C@H](C)O1` the maximum recommended daily dose (mmol/kg-bw/day) [1] was 0.00205.

`CC[C@@H](CO)NC(=O)[C@@H]1C=C2c3cccc4c3c(cn4C)C[C@H]2N(C)C1` gave a maximum recommended daily dose (mmol/kg-bw/day) (TherapeuticCategory: antimigraine) of 0.000283.

With `CCN(CC)CCCC(C)Nc1c2ccc(Cl)cc2nc2ccc(OC)cc12` (stereo not drawn) the maximum recommended daily dose (mmol/kg-bw/day) (TherapeuticCategory: antithelmintic, antimalarial) was 0.0125.

Compound `COc1cc(NS(=O)(=O)c2ccc(N)cc2)c(OC)nn1` has a maximum recommended daily dose (mmol/kg-bw/day) [2] of 0.161.

For `NCCCC(N)(C(=O)O)C(F)F` (stereo not drawn), the maximum recommended daily dose (mmol/kg-bw/day) (TherapeuticCategory: antineoplastic, antineumocystis, antiprotozoal) was 2.2.

In the case of `CC1(C)S[C@@H]2[C@H](NC(=O)[C@H](NC(=O)N3CCN(S(C)(=O)=O)C3=O)c3ccccc3)C(=O)N2[C@H]1C(=O)O`, the maximum recommended daily dose (mmol/kg-bw/day) [2] is reported as 0.495.

Work on `CCOC(=O)CCC(=O)O[C@H]1[C@H](O[C@@H]2[C@@H](C)[C@H](O[C@H]3C[C@@](C)(OC)[C@@H](O)[C@H](C)O3)[C@@H](C)C(=O)O[C@H](CC)[C@@](C)(O)[C@H](O)[C@@H](C)C(=O)[C@H](C)C[C@@]2(C)O)O[C@H](C)C[C@@H]1N(C)C` yielded a maximum recommended daily dose (mmol/kg-bw/day) [2] of 0.0774.

Compound `Nc1ncnc2c1ncn2[C@@H]1O[C@H](CO)[C@@H](O)[C@H]1O` has a maximum recommended daily dose (mmol/kg-bw/day) (TherapeuticCategory: antiarrhythmic) of 0.00748.

In the case of `COc1ccc(OC)c(C(O)CNC(=O)CN)c1` (stereo not drawn), the maximum recommended daily dose (mmol/kg-bw/day) (TherapeuticCategory: adrenergic, antihypotensive) is reported as 0.000983.

In the case of `CCCCN(CCCC)CCNc1nc(-c2ccccc2)no1`, the maximum recommended daily dose (mmol/kg-bw/day) (TherapeuticCategory: peripheral vasodilator) is reported as 0.0126.

`O=C1CN=C(c2ccccc2)c2cc(Cl)ccc2N1CC(F)(F)F` was tested, and the maximum recommended daily dose (mmol/kg-bw/day) [3] was 0.00757.

With `CN(C)C=Nc1c(I)cc(I)c(CCC(=O)O)c1I` the maximum recommended daily dose (mmol/kg-bw/day) (TherapeuticCategory: diagnostic aid) was 0.167.

In the case of `CC(=O)OC(C)C[N+](C)(C)C` (stereo not drawn), the maximum recommended daily dose (mmol/kg-bw/day) (TherapeuticCategory: cholinergic, diagnostic aid) is reported as 0.00213.

For `CC(C(=O)O)c1ccc2oc(-c3ccc(Cl)cc3)nc2c1` (stereo not drawn), the maximum recommended daily dose (mmol/kg-bw/day) [4] was 0.0331.

Work on `Cc1cc2nc3c(=O)[nH]c(=O)nc-3n(C[C@H](O)[C@H](O)[C@H](O)COP(=O)(O)O)c2cc1C` yielded a maximum recommended daily dose (mmol/kg-bw/day) (TherapeuticCategory: enzyme cofactor vitamin) of 0.0011.

With `CC(=O)[C@]1(O)Cc2c(O)c3c(c(O)c2[C@@H](O[C@H]2C[C@H](N)[C@H](O)[C@H](C)O2)C1)C(=O)c1c(O)cccc1C3=O` the maximum recommended daily dose (mmol/kg-bw/day) [1] was 0.00132.

`CCCCC(CC)COC(=O)CC(C(=O)OCC(CC)CCCC)S(=O)(=O)O` (stereo not drawn) was tested, and the maximum recommended daily dose (mmol/kg-bw/day) (TherapeuticCategory: stool softener) was 0.0109.

With `C[C@]12CCC(=O)C=C1CC[C@@H]1[C@@H]2[C@@H](O)C[C@]2(C=O)[C@@H](C(=O)CO)CC[C@@H]12` the maximum recommended daily dose (mmol/kg-bw/day) (TherapeuticCategory: mineralcorticoid) was 2.31e-05.

In the case of `Nc1ncnc2nc[nH]c12`, the maximum recommended daily dose (mmol/kg-bw/day) (TherapeuticCategory: research) is reported as 0.111.

`NS(=O)(=O)c1cc2c(cc1Cl)NC(C1CC3C=CC1C3)NS2(=O)=O` (stereo not drawn) gave a maximum recommended daily dose (mmol/kg-bw/day) (TherapeuticCategory: diuretic, antihypertensive) of 0.000256.

`CCn1nc(C(=O)O)c(=O)c2cc3c(cc21)OCO3` gave a maximum recommended daily dose (mmol/kg-bw/day) [2] of 0.0637.

Compound `CSc1ccc2c(c1)N(CCC1CCCCN1C)c1ccccc1S2` (stereo not drawn) has a maximum recommended daily dose (mmol/kg-bw/day) (TherapeuticCategory: antipsychotic) of 0.0359.

For `C[C@]12CC[C@H]3[C@@H](CCC4=CC(=O)CC[C@@H]43)[C@@H]1CC[C@@H]2O`, the maximum recommended daily dose (mmol/kg-bw/day) (TherapeuticCategory: anabolic) was 0.0121.

In the case of `CN[C@H]1CC[C@@H](c2ccc(Cl)c(Cl)c2)c2ccccc21`, the maximum recommended daily dose (mmol/kg-bw/day) [5] is reported as 0.0109.

Work on `O=C(O)CCC(=O)c1ccc(C2CCCCC2)c(Cl)c1` yielded a maximum recommended daily dose (mmol/kg-bw/day) [6] of 0.0678.

With `CCCCCCCCCCC(=O)O[C@H]1CC[C@H]2[C@@H]3CCc4cc(O)ccc4[C@H]3CC[C@]12C` the maximum recommended daily dose (mmol/kg-bw/day) (TherapeuticCategory: estrogen) was 0.00113.

In the case of `CCC[N+]12[C@@H]3C[C@]45c6ccccc6N(C)[C@H]4[C@H]1C[C@H](C3[C@@H]5O)[C@H](CC)[C@H]2O` (stereo partly drawn), the maximum recommended daily dose (mmol/kg-bw/day) (TherapeuticCategory: antiarryhthmic) is reported as 0.0036.

Work on `CCC1C(=O)OCC1Cc1cncn1C` (stereo not drawn) yielded a maximum recommended daily dose (mmol/kg-bw/day) (TherapeuticCategory: antiglaucoma, miotic) of 0.0024.

`CCCC[N+]1(C)[C@@H]2CC(OC(=O)[C@H](CO)c3ccccc3)C[C@H]1[C@@H]1O[C@@H]12` (stereo partly drawn) was tested, and the maximum recommended daily dose (mmol/kg-bw/day) (TherapeuticCategory: antispasmotic) was 0.00302.

Work on `CC(C)(Oc1ccc(C2CC2(Cl)Cl)cc1)C(=O)O` (stereo not drawn) yielded a maximum recommended daily dose (mmol/kg-bw/day) [7] of 0.00578.

For `CC(C)n1c(/C=C/[C@@H](O)C[C@@H](O)CC(=O)O)c(-c2ccc(F)cc2)c2ccccc21`, the maximum recommended daily dose (mmol/kg-bw/day) [7] was 0.00162.

`OC[C@@H](O)CN1CCN(c2ccccc2)CC1` showed a maximum recommended daily dose (mmol/kg-bw/day) (TherapeuticCategory: antitussive) of 0.0127.

`CCN1CC(CCN2CCOCC2)C(c2ccccc2)(c2ccccc2)C1=O` (stereo not drawn) gave a maximum recommended daily dose (mmol/kg-bw/day) (TherapeuticCategory: respiratory stimulant) of 0.0106.

With `COc1cc(NC(C)CCCN)c2ncccc2c1` (stereo not drawn) the maximum recommended daily dose (mmol/kg-bw/day) (TherapeuticCategory: antimalarial) was 0.00289.

With `CCC(COC(=O)c1cc(OC)c(OC)c(OC)c1)(c1ccccc1)N(C)C` (stereo not drawn) the maximum recommended daily dose (mmol/kg-bw/day) (TherapeuticCategory: antispasmodic) was 0.0258.

Work on `NCCNCCNCCN` yielded a maximum recommended daily dose (mmol/kg-bw/day) (TherapeuticCategory: chelating agent, treatmemt of Wilson's disease) of 0.228.

In the case of `CCOc1ccc(NC(C)=O)cc1`, the maximum recommended daily dose (mmol/kg-bw/day) (TherapeuticCategory: anticonvulsant, analgesic, antipyretic) is reported as 0.279.

For `OC1OC[C@@H](O)[C@H](O)[C@H]1O` (stereo partly drawn), the maximum recommended daily dose (mmol/kg-bw/day) (TherapeuticCategory: intestinal function diagnostic aid) was 2.78.

In the case of `CC(=O)Oc1ccc(C(c2ccc(OC(C)=O)cc2)c2ccccn2)cc1`, the maximum recommended daily dose (mmol/kg-bw/day) (TherapeuticCategory: cathartic) is reported as 0.000692.

`C#C[C@]1(O)CC[C@H]2[C@@H]3CCC4=Cc5oncc5C[C@]4(C)[C@H]3CC[C@@]21C` showed a maximum recommended daily dose (mmol/kg-bw/day) (TherapeuticCategory: antigonadotropin) of 0.0394.

`COc1ccc2c(c1)c(CC(=O)OCC(=O)O)c(C)n2C(=O)c1ccc(Cl)cc1` gave a maximum recommended daily dose (mmol/kg-bw/day) [6] of 0.00721.

`O=C(O)c1cc(-c2ccc(F)cc2F)ccc1O` gave a maximum recommended daily dose (mmol/kg-bw/day) [4] of 0.0999.

`Cn1c(=O)c2c(ncn2CCO)n(C)c1=O` gave a maximum recommended daily dose (mmol/kg-bw/day) [8] of 0.0372.

Work on `C1CNCCN1` yielded a maximum recommended daily dose (mmol/kg-bw/day) [9] of 0.774.

`O=C1CN=C(c2ccccc2)c2cc(Cl)ccc2N1CC1CC1` was tested, and the maximum recommended daily dose (mmol/kg-bw/day) [3] was 0.00308.

Work on `CCC(=O)OCC(=O)[C@@]1(OC(=O)CC)[C@H](C)C[C@H]2[C@@H]3CCC4=CC(=O)C=C[C@]4(C)[C@@]3(F)[C@@H](O)C[C@@]21C` yielded a maximum recommended daily dose (mmol/kg-bw/day) (TherapeuticCategory: glucocorticoid, anti inflammatory) of 0.000297.

For `OCCN1CCN(CCCN2c3ccccc3Sc3ccc(Cl)cc32)CC1`, the maximum recommended daily dose (mmol/kg-bw/day) (TherapeuticCategory: antipsychotic, dopamine receptor antagonist) was 0.00099.

With `CCN1/C(=C/C=C/C=C/c2sc3ccccc3[n+]2CC)Sc2ccccc21` the maximum recommended daily dose (mmol/kg-bw/day) [9] was 0.00642.

Compound `CO[C@@]12[C@H](COC(N)=O)C3=C(C(=O)C(C)=C(N)C3=O)N1C[C@@H]1N[C@@H]12` has a maximum recommended daily dose (mmol/kg-bw/day) [1] of 0.00162.

Compound `CN(C)CCOC(c1ccc(Cl)cc1)c1ccccn1` (stereo not drawn) has a maximum recommended daily dose (mmol/kg-bw/day) (TherapeuticCategory: antihistaminic) of 0.00138.

`CO[C@H]1[C@@H](O)C[C@H](O[C@H]2[C@@H](O)C[C@H](O[C@H]3[C@@H](O)C[C@H](O[C@H]4CC[C@@]5(C)[C@H](CC[C@@H]6[C@@H]5C[C@@H](O)[C@]5(C)[C@@H](C7=CC(=O)OC7)CC[C@]65O)C4)O[C@@H]3C)O[C@@H]2C)O[C@@H]1C` showed a maximum recommended daily dose (mmol/kg-bw/day) (TherapeuticCategory: cardiotonic) of 8.39e-06.

`C#C[C@]1(OC(C)=O)CC[C@H]2[C@@H]3CCC4=CC(=O)CC[C@@H]4[C@H]3CC[C@@]21C` showed a maximum recommended daily dose (mmol/kg-bw/day) (TherapeuticCategory: progestogen) of 4.91e-05.

`NC(N)=NS(=O)(=O)c1ccc(N)cc1` gave a maximum recommended daily dose (mmol/kg-bw/day) [2] of 0.0934.

With `CCCCCCCCCC(=O)O[C@H]1CC[C@H]2[C@@H]3CCC4=CC(=O)CC[C@@H]4[C@H]3CC[C@]12C` the maximum recommended daily dose (mmol/kg-bw/day) (TherapeuticCategory: anabolic) was 0.00777.

In the case of `COC1=C(C(=O)O)N2C(=O)[C@@H](NC(=O)[C@H](N)C3=CCC=CC3)[C@H]2SC1`, the maximum recommended daily dose (mmol/kg-bw/day) [2] is reported as 0.0911.

Compound `Cc1c(OCC(F)(F)F)ccnc1CS(=O)c1nc2ccccc2[nH]1` (stereo not drawn) has a maximum recommended daily dose (mmol/kg-bw/day) (TherapeuticCategory: antiulcerative, anti infective) of 0.00135.

With `O[C@H]([C@H](O)[C@@H](O)CBr)[C@H](O)CBr` the maximum recommended daily dose (mmol/kg-bw/day) [1] was 0.0158.

`CNNCc1ccc(C(=O)NC(C)C)cc1` was tested, and the maximum recommended daily dose (mmol/kg-bw/day) [1] was 0.0271.

In the case of `CN(C)CCCC1(c2ccc(F)cc2)OCc2cc(C#N)ccc21` (stereo not drawn), the maximum recommended daily dose (mmol/kg-bw/day) [5] is reported as 0.00308.

Work on `COc1ccc2nc(S(=O)Cc3ncc(C)c(OC)c3C)[nH]c2c1` (stereo not drawn) yielded a maximum recommended daily dose (mmol/kg-bw/day) [10] of 0.00579.

Work on `NC(N)=Nc1nc(CSCC/C(N)=N/S(N)(=O)=O)cs1` yielded a maximum recommended daily dose (mmol/kg-bw/day) [10] of 0.00198.

With `O=C(Oc1ccccc1C(=O)O)c1ccccc1O` the maximum recommended daily dose (mmol/kg-bw/day) [4] was 0.258.

`CN[C@@H](C)[C@H](O)c1ccccc1` was tested, and the maximum recommended daily dose (mmol/kg-bw/day) [8] was 0.0101.

With `NC12CC3CC(CC(C3)C1)C2` the maximum recommended daily dose (mmol/kg-bw/day) (TherapeuticCategory: antiviral, antiparkinsonian) was 0.0441.

`COc1ccc2c(c1)C(=O)N(CCc1ccc(S(=O)(=O)NC(=O)NC3CCCCC3)cc1)C(=O)C2(C)C` gave a maximum recommended daily dose (mmol/kg-bw/day) (TherapeuticCategory: antidiabetic) of 0.0019.
